How the values were obtained:
[1] = system: proteases in louse egg shell washings (ESW); experiment: Gelatine substrate SDS-PAGE of louse egg shell washings incubated with protease inhibitors; type: biochemical, Pediculus humanus humanus
Method: Within 12 hours of hatching 50 body lice eggs (Pediculus humanus humanus) were removed from the hair and placed in a 1 mL eppendorf tube. 20 μL of distilled water was added to the unhatched eggs and the preparation incubated for 30 minutes at 32° C. The 20 μL was recovered, freeze dried and stored at −70° C. This sample was referred to as sample 1. A number of other samples were also collected as described. Sample 2 was collected by removing the unhatched louse eggs from four hairs that were approximately 3 cm long, cutting the hair into 0.5 cm lengths, and placing them into a microfuge tube containing 20 μl of distilled water and incubating at 32° C. for 30 minutes. Sample 3 was collected as for sample 2, but the hair was placed in a tube containing 10 mL of 1% sodium hypochlorite for 1 minute followed by five 1 minute washes in 25 mL of distilled water to remove the sodium hypochlorite before being incubated in a microfuge tube containing 20 μl of distilled water and incubated as for Sample 2. Sample 4 was collected from unhatched eggs which were removed from the hair and washed with 1% sodium hypochlorite and incubated in 20 μl of distilled water in the same manner as the hair in Sample 3. Finally, Sample 5 was collected from eggs that were within 24 hrs of hatching which were washed with 1% sodium hypochlorite, then returned to the incubator at 32° C. until they hatched, the empty egg shells collected 0-2 hrs after egg-hatching, placed in a 1 mL microfuge tube containing 20 μl of distilled water and incubated as for Samples 1-4. For all samples 1-5 the 20 μl of fluid was recovered, freeze-dried and stored at −70° C. The washings recovered from these freshly hatched egg shells are referred to as egg-shell-washings (ESWs). In order to look for the presence of proteases present in these different samples, the freeze-dried samples were resuspended in 15 μL of non-reducing SDS sample buffer, centrifuged at 10,000 g for 2 minutes and the entire 15 μL loaded on to 10% gelatine substrate SDS-PAGE gels. Gels were run at 4° C. for 10 minutes at 10 mA followed by a further 25 minutes at 15 mA per gel. They were then incubated for 2×20 minutes in a 2.5% Triton-X 100 solution followed by a three hour incubation in 0.1M Tris/HCl containing 1 mM CaCl2 pH 8.0. Activity was detected as clear areas on the gel the result of protease activity degrading the gelatine within the gel.
Protease activity in the ESWs from louse eggs was also examined using two-dimensional gel electrophoresis. It was necessary to collect large numbers of freshly hatched egg shells. Following egglaying onto pieces of cloth, adult female lice were removed and the cloth with the eggs washed with 1% sodium hypochlorite as for collection of ESWs. The eggs were then returned to the incubator and permitted to hatch. Typically 100 to 500 hatched egg shells were collected (0-2 hours post hatching), placed in a microfuge tube containing 200 μl of distilled water, incubated and sample treated as described above. For analysis, ESWs were resuspended in rehydration buffer (8 M Urea, 2% 3-[(3-cholamidopropyl) dimethylammonio]-1-propanesulfonate 2% Immobilised pH gradient buffer 3-10 (Amersham Phamacia Biotech, Uppsala, Sweden)) and used to rehydrate 7 cm Immobiline Dry strips pH 3-10 (Amersham Bioscience) overnight. Strips were transferred to the Multiphor II (Pharmacia, Sweden) apparatus, electrophoresed in the first dimension at 200 V for 1 min, increasing to 3,500 V over the next 90 min followed by 65 min at 3,500 V, equilibrated (6 M urea, 30% glycerol, 50 mM Tris pH 8.8 and 2% SDS) and then run on a 10% SDS-PAGE gel containing 0.1% gelatin for the second dimension. The gel was then run and developed as previously described.
10% SDS-PAGE gelatine substrate gels were loaded with freeze dried egg shell washings from 100 lice eggs that had been resuspended in 50 μL of non-reducing sample buffer with samples run at 10 μL per lane. […]

head lice egg = experiment: Head lice egg hatching, time course; type: in vivo, Pediculus humanus capitus; details: 10 mM, 10 minutes
Method: Tests were carried out to determine if metal chelating agent and metalloprotease inhibitor 1,10-phenanthroline could inhibit head lice egg (Pediculus humanus capitus) hatching as opposed to body lice. Head lice eggs were obtained by placing groups of both 1-2 adult male and 6-8 adult female head lice in separate wells in a 24 well petri dish containing cotton cloth. The petri dish was transferred to a humid incubator at 32° C., 70% RH for 12 hours to permit the female lice to lay their eggs. After 12 hours, all adult lice were removed from the petri dish wells and a series of time-course experiments conducted. A group of eggs (24 hr old) was treated for 10 minutes with 200 μL of a 10 mM solution of 1,10-phenanthroline. A control (ie no inhibitor treatment) group of eggs was also included. The eggs were removed from the inhibitor, blotted dry on tissue paper, placed at 32° C., 70% RH and left to hatch. A second group of eggs, (48 hours old) were treated as previously described and also left to hatch. This process was repeated at 24 hour intervals on head lice eggs up to 120 hours post laying.

[2] = system: Plutella xylostella eggs (Waite strain); experiment: Plutella xylostella egg hatch (egg dip); details: 10 mM; Example 12; dip 2-10 seconds; day 6 post laying
Method: Several hundred Plutella xylostella eggs (Waite strain) were collected, that had been laid over a 24 hour period.
The egg masses were then placed in a humid box at 25° C. until egg hatch. Control eggs were exposed to absolute methanol as described above. At day 6 post laying the eggs were assessed from the different treatments and the percentage of egg hatch determined relative to the control as shown in Table 9.
Batches of Plutella eggs that were laid on either fine cloth or parafilm were dipped in a specific inhibitor solution for between 2-10 seconds, the excess solution was drained by blotting with dry tissue paper. The egg masses were then placed in a humid box at 25 degrees until egg hatch. Control eggs were exposed to absolute methanol as described above or not treated. At day 6 post laying the eggs were assessed from the different treatments and the percentage of egg hatch determined relative to the controls as shown in Tables 10 and 11.
The egg masses were then placed in a humid box at 25 degrees until egg hatch. Control eggs were exposed to absolute ethanol as described above. On day 6 post laying the eggs were assessed from the different treatments and the percentage of egg hatch determined relative to the control.

[3] = system: Lice (L) / Plutella (P) eggs; type: in vivo; details: 10 mM; Lice/Plutella: L P
Method: Log LD50 is obtained from the observed percentage ovicidal activity by conversion using a modified logit transformation. The observed percentage ovicidal activity values were transformed using the equation:
The additional 5% was used to allow a number to be calculated when 0% and 100% activity was observed. The BA is a crude correction to the log of the concentration at which the compounds were tested. Correlation between BA values and LD50 allows the calculation of Log LD50. […] A number of metal chelating agents with potential for inhibiting the remodelling events associated with thin membrane egg hatching in lice were analysed by comparing their percentage ovicidal activity in lice at different concentrations, their logit calculated pLD50, Pref pLD50, Activity class, clogP and molar refractivity were determined.

[4] = system: body lice eggs (clothing lice); experiment: In vitro lice egg hatching bioassay (standard lice assay, time course)
Method: Male and female clothing lice were fed on a rabbit as previously described. Female and male adult lice in a ratio of 3:1 were then transferred to a clean petri dish containing nylon cloth approximately 3×3 cm^2 and left for 12 hours at 32° C. During this period the female lice laid their eggs and attached them to the woven cloth. All lice would then be removed and the eggs permitted to incubate for the following 5 days. On Day 6 the cloth containing the eggs would be placed for 1 minute in a 1% sodium hypochlorite solution and then washed extensively. The eggs would then progress through to their final stages of development and hatch.
Lice eggs were laid onto cloth as described above. Five days post laying the cloth containing lice eggs was removed and immersed in a 1% sodium hypochlorite solution before being washed extensively in distilled water and blotted dry on tissue paper. Lice eggs were counted under a dissecting microscope and the cloth cut into batches of between 10-30 eggs with 3-5 replicates used per treatment. The cloth containing lice eggs was then immersed in a protease inhibitor solution for a period of 10 minutes, placed on tissue paper for 1 minute to dry before being transferred to a clean petri dish and incubated until hatching. […] Specifically a stock solution was prepared as follows: 1,10-phenanthroline (200 mM in methanol). In addition, the equivalent levels of the solvent were added to the non-inhibitor containing controls eggs to test for any buffer alone effects. Percentage hatch inhibition was calculated as the percentage reduction in egg hatch compared to the untreated control. The untreated control was assigned a percentage hatch of 100%.
A series of time-course experiments was conducted as a means of assessing inhibitors of lice egg hatching. […]
An experiment was undertaken to determine whether washing of the eggs would effect the inhibitory activity of 1,10-phenanthroline (Table 3). […] Percentage hatch inhibition was calculated as the percentage reduction in egg hatch compared to the untreated control. […]

lice eggs = experiment: Standard lice egg-hatching assay with commercial head lice products; type: in vivo; details: Example 10; products per manufacturer's recommendations, 1,10-phenanthroline 10 mM
Method: The ovicidal properties of three major commercial head lice products were evaluated in the standard lice egg-hatching assay. The 3 commercial head lice products were as follows:
These three products were tested according to manufacturer's recommendations. Groups of eggs (24 hours old) were treated with the different products according to manufacturer's recommendations for the appropriate period of time (5-10 minutes) followed by a rinse for 1-2 minutes in 32° C. water. A positive controls (10 mM 1,10-phenanthroline) and two negative controls (no treatment and 20% Methanol) were also incorporated. Post exposure to the different products, the eggs were rinsed with warm water at 32° C. before being blotted dry on tissue paper and placed at 32° C., 70% RH and left to hatch. A second group of eggs, (48 hours old) were treated as previously described and also left to hatch. This process was repeated at 24 hour intervals on head lice eggs up to 120 hours post laying.
The ovicidal properties of two major commercial head lice products were evaluated in the standard lice egg-hatching assay. The 2 commercial head lice products were as follows:
These two products were tested according to manufacturer's recommendations. […]

[5] = system: Helicoverpa armigera eggs; experiment: Helicoverpa egg hatch; details: 10 mM; Example 16; exposed 2-10 seconds; day 6 post laying
Method: A range of concentrations were made up in water and the eggs placed in the solutions for approximately 2-10 seconds. The eggs which had been laid on cloth were then blotted dry and placed in an incubator at 26° C. for 3-4 days until hatch. Hatch rates were then assessed compared to a water only treated control (FIG. 5).
The compound was dissolved in 100% diethoxyglycol and diluted to a final concentration of 1% in water.
Several hundred Helicoverpa armigera eggs (Tatura×Toowoomba strains) were collected, that had been laid on fine mesh cloth over a 24 hour period.
Batches of Helicoverpa eggs were exposed to a specific inhibitor solution for between 2-10 seconds the excess solution drained by blotting with dry tissue paper. The egg masses were then placed in a humid box at 25 degrees until egg hatch. Control eggs were exposed to absolute methanol as described above. At day 6 post laying the eggs were assessed from the different treatments and the percentage of egg hatch determined relative to the control as shown in Table 12.
Batches of Helicoverpa eggs were then exposed to a specific inhibitor solution for between 2-10 seconds the excess solution drained by blotting with dry tissue paper. The egg masses were then placed in a humid box at 25° C. until egg hatch. Control eggs were exposed to absolute methanol as described above. At day 6 post laying the eggs were assessed from the different treatments and the percentage of egg hatch determined relative to the control as shown in Table 13.

## c1cnc2c(c1)ccc1cccnc12 [1,10-phenanthroline]
[1]; gel incubated with 10 mM 1,10-phenanthroline
  protease activity of egg shell washings, two dimensional gel: general reduction in protease activity in the 25-30 kDa region and a clear reduction in the proteases present around the 50 kDa region and above 75 kDa
[1]; gelatine SDS-PAGE strips, EDTA 10 mM, 1,10-phenanthroline 10 mM, PMSF 5 mM, E-64 10 μM, Pepstatin 5 μM, 3 hrs at 37° C.
  protease activity of egg shell washings compared to untreated controls: reduction in protease activity
Head lice egg
  egg hatching in head lice: significantly inhibit
[2]
  % Inhibition of egg hatch relative to control: significantly inhibit
[3]
  Activity class 0 = inactive 1 = low 2 = med 3 = high: 1 (a pLD50 value between 2 and 3 is considered weakly active (Class 1))
[4]; 10 mM, 10 minutes, washed 1 minute
  inhibition of lice egg hatching following washing of eggs in water: still highly efficacious
[4]; 10 mM, eggs treated 5 days post laying, 10 minutes
  inhibition of egg hatching in lice: significantly inhibited
[4]; 2.5-10 mM, all time points examined
  egg hatching in lice: significantly inhibit
Lice eggs
  ovicidal activity across the different stages of lice egg hatching: highly effective
[5]
  % Inhibition of egg hatch relative to control: able to inhibit

Reference: US20100204277A1, “Compositions and Methods for Controlling Infestation” (HATCHTECH PTY LTD., priority 2007, published 2010)
